We go through 8 compounds from ChEMBL document CHEMBL1143756, “Alpha-substituted N-(4-tert-butylbenzyl)-N'-[4-(methylsulfonylamino)benzyl]thiourea analogues as potent and stereospecific TRPV1 antagonists” (Bioorg Med Chem, 2007).

Test [1] deals with T1, Transient receptor potential cation channel subfamily V member 1 (Rattus norvegicus, UniProt O35433). As to the kind of experiment: Antagonist activity at rat TRPV1 receptor expressed in CHO cells by Ca2+ uptake assay.
In test [2] the target is T1, Transient receptor potential cation channel subfamily V member 1. The test can be described thus: Displacement of [3H]RTX from rat TRPV1 receptor expressed in CHO cells. It counts as cell-based. In general terms: Displacement assays read how much labelled ligand stays bound in the presence of the test substance.
For test [3], the target named is Transient receptor potential cation channel subfamily V member 1 (Rattus norvegicus) (UniProt O35433). As to the kind of experiment: Agonist activity at rat TRPV1 receptor expressed in CHO cells by Ca2+ uptake assay. It counts as functional, cell-based.

Molecules are shown by their SMILES.

T1 sequence (O35433 whole entry): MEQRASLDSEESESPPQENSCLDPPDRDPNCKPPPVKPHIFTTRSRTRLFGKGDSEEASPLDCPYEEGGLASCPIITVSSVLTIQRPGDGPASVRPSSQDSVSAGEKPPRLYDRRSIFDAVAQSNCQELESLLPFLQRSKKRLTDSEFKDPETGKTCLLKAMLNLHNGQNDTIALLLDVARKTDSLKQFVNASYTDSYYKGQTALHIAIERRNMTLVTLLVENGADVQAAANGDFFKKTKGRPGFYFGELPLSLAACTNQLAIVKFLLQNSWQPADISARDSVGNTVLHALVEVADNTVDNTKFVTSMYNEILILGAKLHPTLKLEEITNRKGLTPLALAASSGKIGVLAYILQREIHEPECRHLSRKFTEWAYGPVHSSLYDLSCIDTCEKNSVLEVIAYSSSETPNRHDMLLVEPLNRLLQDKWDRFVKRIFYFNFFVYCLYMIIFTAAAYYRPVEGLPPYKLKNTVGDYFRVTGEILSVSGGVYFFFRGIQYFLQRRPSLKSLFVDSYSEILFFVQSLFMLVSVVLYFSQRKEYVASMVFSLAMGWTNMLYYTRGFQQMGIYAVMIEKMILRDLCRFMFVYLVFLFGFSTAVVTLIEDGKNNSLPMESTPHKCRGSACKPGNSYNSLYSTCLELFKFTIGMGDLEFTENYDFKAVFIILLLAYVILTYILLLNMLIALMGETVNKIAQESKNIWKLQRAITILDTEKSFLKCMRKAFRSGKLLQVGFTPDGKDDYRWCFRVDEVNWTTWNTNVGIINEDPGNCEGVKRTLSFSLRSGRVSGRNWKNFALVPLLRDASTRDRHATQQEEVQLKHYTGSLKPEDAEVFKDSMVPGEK
Chain of Transient receptor potential cation channel subfamily V member 1 (Rattus norvegicus) (O35433 whole entry): as above

Broadly, the Ki is a measure of affinity in units of concentration, obtained from inhibition or displacement. Low readings indicate higher affinity, high ones lower affinity. Take `CN(C)CCCN1c2ccccc2Sc2ccc(Cl)cc21` [CHLORPROMAZINE]: the values for the Ki in test [1] and in test [2] were 0.52 µM and 1.3 µM, respectively. In turn, `COc1cc(CNC(=S)NCc2ccc(C(C)(C)C)cc2)ccc1NS(C)(=O)=O` gave an Activity in test [3] of 18%. In test [2], this compound had a Ki of 0.051 µM.

For the compound `C[C@H](NC(=S)NCc1ccc(C(C)(C)C)cc1)c1ccc(NS(C)(=O)=O)c(F)c1`, the Ki was determined as 2.67 µM in test [1] and 2.14 µM in test [2].

In turn, `C[C@H](NC(=S)NCc1ccc(C(C)(C)C)cc1)c1ccc(NS(C)(=O)=O)cc1` had a Ki in test [2] of 3.95 µM.

For the compound `C[C@H](/N=C(\S)NCc1ccc(C(C)(C)C)cc1)c1ccc(NS(C)(=O)=O)cc1`, the Activity in test [3] was determined as 8%. Turning to `CC(NC(=S)NCc1ccc(C(C)(C)C)cc1)c1ccc(NS(C)(=O)=O)cc1` (configuration not stated), the figures for the Ki in test [1] and in test [2] were 0.0147 µM and 0.0593 µM, respectively. With `CC(C)(C)c1ccc(CNC(=S)NC(C)(C)c2ccc(NS(C)(=O)=O)cc2)cc1`, in test [1], the Ki was 1.8 µM. On the same count and under the same terms, as for `C[C@@H](NC(=S)NCc1ccc(C(C)(C)C)cc1)c1ccc(NS(C)(=O)=O)c(F)c1`, the figure is 0.037 µM.
